Test results as given in ChEMBL document CHEMBL3351574, “Antitubercular activity of quinolizidinyl/pyrrolizidinylalkyliminophenazines” (Bioorg Med Chem, 2014).
In brackets after ≈: the same amount, converted by molar mass. Counter-ions that a name gives are not always drawn.

Legend:
[1] = Cytotoxicity against human HMEC1 cells assessed as reduction in cell viability after 72 hrs by MTT method; format: cell-based, HMEC-1
in vitro [2] = conditions: human, HMEC1 cells
Description: Selectivity index, ratio of CC50 for human HMEC1 cells to MIC for Mycobacterium tuberculosis H37Rv

[3] = tested on: Mycobacterium tuberculosis; assay: microbe, parasite or virus in culture; conditions: isolate 439/11, 168 h
Description: Antitubercular activity against Mycobacterium tuberculosis isolate 439/11 after 7 days by REMA resazurin microtiter assay

[4] = tested on: Mycobacterium tuberculosis; assay: microbe, parasite or virus in culture; conditions: isolate 778/10, 168 h
Description: Antitubercular activity against Mycobacterium tuberculosis isolate 778/10 after 7 days by REMA resazurin microtiter assay

[5] = tested on: Mycobacterium tuberculosis; assay: microbe, parasite or virus in culture; conditions: isolate 917/10, 168 h
Description: Antitubercular activity against Mycobacterium tuberculosis isolate 917/10 after 7 days by REMA resazurin microtiter assay

[6] = tested on: Mycobacterium tuberculosis; assay: microbe, parasite or virus in culture; conditions: isolate 29/10, 168 h
Description: Antitubercular activity against Mycobacterium tuberculosis isolate 29/10 after 7 days by REMA resazurin microtiter assay

[7] = tested on: Mycobacterium tuberculosis; assay: microbe, parasite or virus in culture; conditions: H37Rv, 168 h
Description: Antitubercular activity against Mycobacterium tuberculosis H37Rv after 7 days by REMA resazurin microtiter assay

[8] = tested on: Mycobacterium tuberculosis; assay: microbe, parasite or virus in culture; conditions: isolate 756/10, 168 h
Description: Antitubercular activity against Mycobacterium tuberculosis isolate 756/10 after 7 days by REMA resazurin microtiter assay

Mycobacterium avium = format: functional; conditions: 168 h
[9] = tested on: Mycobacterium tuberculosis; format: functional; conditions: H37Ra, 168 h
in vitro [10] = conditions: human, MT4 cells
Description: Selectivity index, ratio of CC50 for human MT4 cells to MIC for Mycobacterium tuberculosis H37Rv

[11] = Cytotoxicity against human MT4 cells assessed as reduction in cell viability after 96 hrs by MTT method; format: cell-based
[12] = Cytotoxicity against african green monkey Vero 76 cells assessed as reduction in cell viability after 48 to 96 hrs by MTT method; format: cell-based; conditions: chlorocebus sabaeus
[13] = Lipophilicity, logD of the compound at pH 7.4; format: physicochemical; conditions: buffer
in vitro [14] = conditions: monkey, Vero 76 cells
Description: Selectivity index, ratio of CC50 for african green monkey Vero 76 cells to MIC for Mycobacterium tuberculosis H37Rv

[15] = Half life in human; format: ADME, organism-based; conditions: in vivo
[16] = tested on: Mycobacterium tuberculosis; assay: Antitubercular activity against Mycobacterium tuberculosis; format: functional

SMILES | CC50 at 72 h [1] [µM] | selectivity ratio (in vitro [2]) | MIC [3] [µM] | MIC [4] [µM] | MIC [5] | MIC [6] [µM] | MIC [7] [µM] | MIC [8] | MIC (Mycobacterium avium) | MIC [9] [µM] | further results
Cc1ccc(Nc2cc3nc4ccccc4n(-c4ccc(C)cc4)c-3c/c2=N/C[C@@H]2CCCN3CCCC[C@H]23)cc1 | 2.6 | 0.4 | – | – | – | – | – | – | – | – | –
CO[C@H]1/C=C/O[C@@]2(C)Oc3c(C)c(O)c4c(O)c(c(/C=N/N5CCN(C)CC5)c(O)c4c3C2=O)NC(=O)/C(C)=C\C=C\[C@H](C)[C@H](O)[C@@H](C)[C@@H](O)[C@@H](C)[C@H](OC(C)=O)[C@@H]1C [RIFAMPIN] | – | – | 0.08 (≈ 0.0658 µg/mL) | 0.15 (≈ 0.123 µg/mL) | 0.61 µM | 0.15 (≈ 0.123 µg/mL) | 0.3 (≈ 0.247 µg/mL) | 0.3 µM | – | – | –
c1ccc(Nc2cc3nc4ccccc4n(-c4ccccc4)c-3c/c2=N/CC[C@@H]2CCCN3CCCC[C@H]23)cc1 | – | – | – | 1.89 (≈ 0.997 µg/mL) | 1.89 µM | 1.89 (≈ 0.997 µg/mL) | 7.58 (≈ 4 µg/mL) | – | 15.2 µM | 3.79 (≈ 2 µg/mL) | –
Clc1ccc(Nc2cc3nc4ccccc4n(-c4ccc(Cl)cc4)c-3c/c2=N/C[C@@H]2CCCN3CCCC[C@H]23)cc1 | 4.7 | 5.46 | 0.86 (≈ 0.501 µg/mL) | 0.86 (≈ 0.501 µg/mL) | 0.86 µM | 0.86 (≈ 0.501 µg/mL) | 0.86 (≈ 0.501 µg/mL) | 0.86 µM | 6.87 µM | – | selectivity ratio (in vitro [10]): 5.23; CC50 at 96 h [11]: 4.5 µM; CC50 [12]: 68 µM; logD ([13]; read-out: logD): 5.54; selectivity ratio (in vitro [14]): 79.1
c1ccc(Nc2cc3nc4ccccc4n(-c4ccccc4)c-3c/c2=N/CCC[C@@H]2CCCN3CCCC[C@H]23)cc1 | 8.3 | 1.12 | – | – | – | – | 7.38 (≈ 4 µg/mL) | – | – | 7.38 (≈ 4 µg/mL) | selectivity ratio (in vitro [10]): 0.22; CC50 at 96 h [11]: 1.6 µM; CC50 [12]: 36 µM; selectivity ratio (in vitro [14]): 4.88
CC(C)/N=c1\cc2n(-c3ccc(Cl)cc3)c3ccccc3nc-2cc1Nc1ccc(Cl)cc1 [CLOFAZIMINE] | 18.6 | 17.6 | 1.06 (≈ 0.502 µg/mL) | 1.06 (≈ 0.502 µg/mL) | 1.06 µM | 1.06 (≈ 0.502 µg/mL) | 1.06 (≈ 0.502 µg/mL) | 1.06 µM | 4.23 µM | – | selectivity ratio (in vitro [10]): 6.41; CC50 at 96 h [11]: 6.8 µM; CC50 [12]: > 100 µM; logD [13]: 6.36; selectivity ratio (in vitro [14]): > 94; half-life [15]: 70 days
Cc1c(N)ccc(NC[C@@H]2CCCN3CCCC[C@H]23)c1C | – | – | – | – | – | – | – | – | – | – | MIC [16]: ≤ 0.5 µg/mL
c1ccc(Nc2cc3nc4ccccc4n(-c4ccccc4)c-3c/c2=N/C[C@H]2CCCN3CCCC[C@H]23)cc1 | – | – | – | 1.95 (≈ 1 µg/mL) | 1.95 µM | 1.95 (≈ 1 µg/mL) | 7.79 (≈ 4 µg/mL) | – | > 16 µg/mL | 3.89 (≈ 2 µg/mL) | –
c1ccc(Nc2cc3nc4ccccc4n(-c4ccccc4)c-3c/c2=N/CC[C@H]2CCCN3CCCC[C@H]23)cc1 | – | – | – | – | – | – | 7.58 (≈ 4 µg/mL) | – | – | 7.58 (≈ 4 µg/mL) | –
Clc1ccc(Nc2cc3nc4ccccc4n(-c4ccc(Cl)cc4)c-3c/c2=N/CC[C@@H]2CCCN3CCCC[C@H]23)cc1 | 2.5 | 2.98 | 0.84 (≈ 0.501 µg/mL) | 0.84 (≈ 0.501 µg/mL) | 0.84 µM | 0.84 (≈ 0.501 µg/mL) | 0.84 (≈ 0.501 µg/mL) | 0.84 µM | 3.35 µM | – | selectivity ratio (in vitro [10]): 1.43; CC50 at 96 h [11]: 1.2 µM; CC50 [12]: 9 µM; logD ([13]; read-out: logD): 5.52; selectivity ratio (in vitro [14]): 10.7
NNC(=O)c1ccncc1 [ISONIAZID] | – | – | 1.82 (≈ 0.25 µg/mL) | 0.91 (≈ 0.125 µg/mL) | 1.82 µM | 0.91 (≈ 0.125 µg/mL) | 1.82 (≈ 0.25 µg/mL) | 3.65 µM | – | – | –
OC(C[C@@H]1CCCN2CCCC[C@H]12)(c1ccccc1)c1ccc(-c2ccccc2)cc1 (stereo partly specified) | – | – | – | – | – | – | – | – | – | – | MIC [16]: ≤ 1 µg/mL
c1ccc(Nc2cc3nc4ccccc4n(-c4ccccc4)c-3c/c2=N/CCC23CCCN2CCC3)cc1 [listing 1 of 2 here] | – | – | 0.88 (≈ 0.44 µg/mL) | 1.76 (≈ 0.879 µg/mL) | 7.04 µM | 0.88 (≈ 0.44 µg/mL) | 0.88 (≈ 0.44 µg/mL) | 28.1 µM | 28.1 µM | 3.52 (≈ 1.76 µg/mL) | –
CC[C@@H](CO)NCCN[C@@H](CC)CO [ETHAMBUTOL] | – | – | 1.8 (≈ 0.368 µg/mL) | 7.21 (≈ 1.47 µg/mL) | 14.4 µM | 3.61 (≈ 0.738 µg/mL) | 14.4 (≈ 2.95 µg/mL) | 14.4 µM | – | – | –
CN[C@@H]1[C@H](O[C@H]2[C@H](O[C@H]3[C@H](O)[C@@H](O)[C@H](N=C(N)N)[C@@H](O)[C@@H]3N=C(N)N)O[C@@H](C)[C@]2(O)C=O)O[C@@H](CO)[C@H](O)[C@H]1O [STREPTOMYCIN SULFATE] | – | – | 0.17 | 0.34 | 0.69 µM | 0.69 | 0.69 | 0.69 µM | – | – | –
FC(F)(F)c1cccc(NC[C@@H]2CCCN3CCCC[C@H]23)c1 | – | – | – | – | – | – | – | – | – | – | MIC [16]: 2.5 µg/mL (≈ 8 µM)
c1ccc(Nc2cc3nc4ccccc4n(-c4ccccc4)c-3c/c2=N/C[C@@H]2CCCN3CCCC[C@H]23)cc1 | – | – | – | – | – | – | 15.6 (≈ 8.01 µg/mL) | – | – | 15.6 (≈ 8.01 µg/mL) | –
Clc1ccc(Nc2cc3nc4ccccc4n(-c4ccc(Cl)cc4)c-3c/c2=N/CC[C@H]2CCCN3CCCC[C@H]23)cc1 | 2.3 | 2.74 | 0.84 (≈ 0.501 µg/mL) | 0.84 (≈ 0.501 µg/mL) | 0.84 µM | 0.84 (≈ 0.501 µg/mL) | 0.84 (≈ 0.501 µg/mL) | 0.84 µM | 3.35 µM | – | selectivity ratio (in vitro [10]): 2.14; CC50 at 96 h [11]: 1.8 µM; CC50 [12]: 9.5 µM; selectivity ratio (in vitro [14]): 11.3
Cl.Clc1ccc(Nc2cc3nc4ccccc4n(-c4ccc(Cl)cc4)c-3c/c2=N/CCC23CCCN2CCC3)cc1 | – | – | 6.25 | 12.5 | > 16 µg/mL | 0.78 | > 16 | > 16 µg/mL | > 16 µg/mL | 26 | –
Clc1ccc(Nc2cc3nc4ccccc4n(-c4ccc(Cl)cc4)c-3c/c2=N/CCC23CCCN2CCC3)cc1 | 1.5 | < 0.06 | – | – | – | – | – | – | – | – | –
Cc1ccc(Nc2cc3nc4ccccc4n(-c4ccc(C)cc4)c-3c/c2=N/C[C@@H]2CCCN3CCCC[C@H]23)cc1.Cl | – | – | 3.25 | 6.5 | 26 µM | 0.81 | 6.5 | > 16 µg/mL | 26 µM | 26 | –
Cc1ccc(NC[C@@H]2CCCN3CCCC[C@H]23)c2c(=O)c3ccccc3sc12 | – | – | – | – | – | – | – | – | – | – | MIC [16]: 1.25 µg/mL (≈ 3.18 µM)
Clc1cccc(C(C[C@@H]2CCCN3CCCC[C@H]23)c2ccccc2)c1 (stereo partly specified) | – | – | – | – | – | – | – | – | – | – | MIC [16]: ≤ 0.1 µg/mL
c1ccc(Nc2cc3nc4ccccc4n(-c4ccccc4)c-3c/c2=N/CCC[C@H]2CCCN3CCCC[C@H]23)cc1 | 5.5 | 0.74 | – | – | – | – | 7.38 (≈ 4 µg/mL) | – | – | 0.92 (≈ 0.498 µg/mL) | selectivity ratio (in vitro [10]): 0.78; CC50 at 96 h [11]: 5.8 µM; CC50 [12]: 9.6 µM; selectivity ratio (in vitro [14]): 1.3
c1ccc(Nc2cc3nc4ccccc4n(-c4ccccc4)c-3c/c2=N/CCC23CCCN2CCC3)cc1 [listing 2 of 2 here] | 3.2 | 3.64 | – | – | – | – | – | – | – | – | –
C(=C1c2ccccc2-c2ccccc21)[C@@H]1CCCN2CCCC[C@H]12 | – | – | – | – | – | – | – | – | – | – | MIC [16]: 0.156 µg/mL (≈ 0.495 µM)
Clc1ccc(Nc2cc3nc4ccccc4n(-c4ccc(Cl)cc4)c-3c/c2=N/CCC[C@H]2CCCN3CCCC[C@H]23)cc1 | 3.1 | 3.78 | 0.82 (≈ 0.501 µg/mL) | 0.82 (≈ 0.501 µg/mL) | 0.82 µM | 0.82 (≈ 0.501 µg/mL) | 0.82 (≈ 0.501 µg/mL) | 0.82 µM | 3.28 µM | – | selectivity ratio (in vitro [10]): 1.83; CC50 at 96 h [11]: 1.5 µM; CC50 [12]: 9 µM; selectivity ratio (in vitro [14]): 11
